In article PMC10974533, “Cationicity Enhancement on the Hydrophilic Face of Ctriporin Significantly Reduces Its Hemolytic Activity and Improves the Antimicrobial Activity against Antibiotic-Resistant ESKAPE Pathogens” (Toxins, 2024):
Where a SMILES comes first, the peptide text is derived from it.

Experiments:
[1] = system: human red blood cells (hRBC); experiment: Hemolytic activity determination; assay type: cell-based; details: 256 μg/mL peptide, 2% (v/v) hRBC, 37 °C, 1 h, OD540, 1% Triton X-100 = 100%; average ± standard error of three independent experiments
Experimental: Figure 2 Hemolytic activities of Ctriporin and its analogs against human red blood cells (hRBC). Hemolytic activities of Ctriporin (solid circle), CM1 (open circle), CM2 (open square), CM3 (upward triangle), CM4 (downward triangle), CM5 (half solid circle), CM6 (half solid square), and CM7 (half solid triangle), were measured against 2% (v/v) human red blood cells. The peptide concentrations are 0, 2, 4, 8, 16, 32, 64, 128, 256, and 512 μg/mL. The cells treated with 1% Triton X-100 were treated as 100% hemolysis. All experiments were repeated three times, and the data shown are the average ± standard error.
The hemolytic activities of the peptides were determined against human red blood cells (hRBCs). As described, sodium citrate-anticoagulated hRBCs were washed three times with 0.9% sodium chloride and diluted to a final concentration of 4% (v/v). Then, an equal volume of hRBC solutions was mixed with an equal volume of each peptide in a series of concentrations (0, 2, 4, 8, 16, 32, 64, 128, 256, and 512 μg/mL). After co-incubation at 37 °C for 1 h, the degree of hemolysis of the peptides was determined by detecting the release of hemoglobin from the damaged hRBCs by measuring the optical density at 540 nm (OD540). hRBCs in 0.9% sodium chloride and 1% Triton X-100 were considered 0% and 100% hemolysis, respectively. The results shown are the average ± standard error of data derived from three independent experiments. The percent hemolysis was calculated according to the following equation [53, 54]:Hemolysis (%) = 100 × (Asample − Ablank)/(Apositive − Ablank)

standard ESKAPE strains = assay type: cell-based; details: broth dilution (CLSI), MHB
Experimental: The ESKAPE pathogens represent the main threat to public health concerning antimicrobial resistance. Therefore, we first evaluated the antimicrobial activities of Ctriporin and its analogs against the standard ESKAPE strains. The minimum inhibitory concentration (MIC) was chosen as the index for the evaluation of each peptide’s activity. […] Note that the MICs of CM4 and CM7 are 4–32 and 8–32 μg/mL, respectively, indicating the existence of significant bacterial species deviations for the antimicrobial activity of these peptides. In addition, the replacement of specific residues, especially Pro^7, may harm the antimicrobial activities of the peptide.
The standard strains, including S. aureus ATCC29213 and ATCC25923, E. faecalis ATCC29212, E. coli ATCC25922 and ATCC35218, A. baumannii ATCC19606, K. pneumoniae ATCC700603, and P. aeruginosa ATCC27853, were purchased from the China Center of Type Culture Collection (CCTCC). The clinical strains of the ESKAPE pathogens were isolated from the affiliated hospitals of Hubei University of Medicine. All of them were stored at −80 °C before use. The drug sensitivities of the clinical strains were determined by the Kirby–Bauer test.
The MICs were determined using the broth dilution method according to the guidelines of the Clinical and Laboratory Standards Institute (CLSI), as described in the previous studies. Briefly, the bacterial cells were incubated in Mueller–Hinton broth (MHB, Oxoid, Basingstoke, UK) at 37 °C and 150 rpm to the mid-growth phase and diluted to achieve a final concentration of 5 × 10^5 colony-forming units per milliliter (CFU/mL). Then, the cells were mixed with each peptide in different concentrations (1, 2, 4, 8, 16, 32, and 64 μg/mL). […] All experiments were repeated at least three times.

With `CC[C@H](C)[C@H](NC(=O)[C@H](C)NC(=O)CNC(=O)[C@@H]1CCCN1C(=O)[C@@H](NC(=O)[C@H](CC(C)C)NC(=O)CNC(=O)[C@H](Cc1c[nH]c2ccccc12)NC(=O)[C@H](CC(C)C)NC(=O)[C@@H](N)Cc1ccccc1)[C@@H](C)CC)C(=O)N[C@@H](CO)C(=O)N[C@@H](C)C(=O)N[C@H](C(=O)N[C@H](C(=O)N[C@@H](CO)C(=O)N[C@@H](CC(C)C)C(=O)N[C@H](C(=O)N[C@@H](CCCCN)C(=O)N[C@@H](CCCCN)C(N)=O)[C@@H](C)CC)[C@@H](C)O)C(C)C` [Ctriporin] (H-FLWGLIPGAISAVTSLIKK-NH2; N-terminus assumed) the “Hemolysis% at 256 μg/mL” value [1] was 90.6 ± 11.8%, the “MICs against S. aureus and A. baumannii” value (standard ESKAPE strains; standard strains of S. aureus and A. baumannii) was 16 to 32 µg/mL and the “MICs for other tested bacterial species” value (standard ESKAPE strains; standard strains other than S. aureus and A. baumannii) was at least 64 µg/mL.
